Read-outs that look alike come from different tables or passages of the source. Values belong to the molecule of their own block, whether it stands above or below them.
Key:
P97 = P97 (Homo sapiens, UniProt P55072); test: P97 Biomolgreen ATPase assay, 200 μM ATP; format: biochemical
From the text: The following Table IV provides relevant results. The compound number in Table IV correlates to the numbered compounds in Table III.

SKMel5 (BRAFV600E) = test: Anti-proliferative activity, SKMel5; format: cell-based; details: Homo sapiens, SK-MEL-5, skin cancer, read-out: Anti-proliferative activity (μM) of NMS-873
Experimental: (§1) Cells were seeded on a 384-well solid white plate (5,000 cells/well). Cells were transfected with luciferase siRNA or p97 siRNA (10 nM) for 48 h or treated with compounds for the indicated amount of time. Caspase-3/7 Glo, caspase-6 Glo, caspase-8 Glo, or caspase-9 Glo (Promega) was added into each well and mixed by shaking at 500 rpm for 1 min. Luminescence signal was determined after incubation at room temperature for 1 h. Cellular viability was determined with Cell-Titer-Glo reagent (Promega). […] IC50 values were calculated from fitting the percentage of luminescence signal normalized to DMSO treated cells).

MDA-MB-468 = test: Anti-proliferative activity, MDA-MB-468; format: cell-based; details: Homo sapiens, Breast, read-out: Anti-proliferative activity (μM) of NMS-873
Experimental: (§2) Cells were seeded on a 384-well solid white plate (5,000 cells/well). Cells were transfected with luciferase siRNA or p97 siRNA (10 nM) for 48 h or treated with compounds for the indicated amount of time. […] Cellular viability was determined with Cell-Titer-Glo reagent (Promega). […] IC50 values were calculated from fitting the percentage of luminescence signal normalized to DMSO treated cells).

RPMI8226 = test: Anti-proliferative activity, RPMI8226; format: cell-based; details: Homo sapiens, RPMI-8226, Multiple Myeloma, read-out: Anti-proliferative activity (μM) of NMS-873
MDA-MB-231 = test: Anti-proliferative activity, MDA-MB-231; format: cell-based; details: Homo sapiens, Breast, read-out: Anti-proliferative activity (μM) of NMS-873
Experimental: as §2

LoxIMVI (BRAFV600E) = test: Anti-proliferative activity, LoxIMVI; format: cell-based; details: Homo sapiens, LOX IMVI, skin cancer, read-out: Anti-proliferative activity (μM) of NMS-873
Experimental: as §1

HCT116 = test: Anti-proliferative activity, HCT116; format: cell-based; details: Homo sapiens, HCT-116, Colon, read-out: Anti-proliferative activity (μM) of NMS-873
Experimental: as §2

A549 = test: Anti-proliferative activity, A549; format: cell-based; details: Homo sapiens, Lung Cancer, read-out: Anti-proliferative activity (μM) of NMS-873
Experimental: as §1

SKMel2 (NRASQ61R) = test: Anti-proliferative activity, SKMel2; format: cell-based; details: Homo sapiens, SK-MEL-2, skin cancer, read-out: Anti-proliferative activity (μM) of NMS-873
Experimental: as §1

BxPC-3 = test: Anti-proliferative activity, BxPC-3; format: cell-based; details: Homo sapiens, Pancreatic cancers, read-out: Anti-proliferative activity (μM) of NMS-873
Experimental: as §1

HCT15 = test: Anti-proliferative activity, HCT15; format: cell-based; details: Homo sapiens, HCT-15, Colon, read-out: Anti-proliferative activity (μM) of NMS-873
Experimental: as §2

MCF-7 = test: Anti-proliferative activity, MCF-7; format: cell-based; details: Homo sapiens, MCF7, Breast, read-out: Anti-proliferative activity (μM) of NMS-873
Experimental: as §2

PANC-1 = test: Anti-proliferative activity, PANC-1; format: cell-based; details: Homo sapiens, Pancreatic cancers, read-out: Anti-proliferative activity (μM) of NMS-873
Experimental: as §1

WM3918 (BRAF/NRAS WT) = test: Anti-proliferative activity, WM3918; format: cell-based; details: skin cancer, read-out: Anti-proliferative activity (μM) of NMS-873
Experimental: as §1

SW620 = test: Anti-proliferative activity, SW620; format: cell-based; details: Homo sapiens, SW-620, Colon, read-out: Anti-proliferative activity (μM) of NMS-873
Molt4 = test: Anti-proliferative activity, Molt4; format: cell-based; details: Homo sapiens, MOLT-4, blood cancer, read-out: Anti-proliferative activity (μM) of NMS-873
A375 (BRAFV600E) = test: Anti-proliferative activity, A375; format: cell-based; details: Homo sapiens, A-375, skin cancer, read-out: Anti-proliferative activity (μM) of NMS-873
CCRF-CEM = test: Anti-proliferative activity, CCRF-CEM; format: cell-based; details: Homo sapiens, blood cancer, read-out: Anti-proliferative activity (μM) of NMS-873
[1] = read-out: P97 Biomolgreen, IC50

Sequence of P97 (P55072 whole entry): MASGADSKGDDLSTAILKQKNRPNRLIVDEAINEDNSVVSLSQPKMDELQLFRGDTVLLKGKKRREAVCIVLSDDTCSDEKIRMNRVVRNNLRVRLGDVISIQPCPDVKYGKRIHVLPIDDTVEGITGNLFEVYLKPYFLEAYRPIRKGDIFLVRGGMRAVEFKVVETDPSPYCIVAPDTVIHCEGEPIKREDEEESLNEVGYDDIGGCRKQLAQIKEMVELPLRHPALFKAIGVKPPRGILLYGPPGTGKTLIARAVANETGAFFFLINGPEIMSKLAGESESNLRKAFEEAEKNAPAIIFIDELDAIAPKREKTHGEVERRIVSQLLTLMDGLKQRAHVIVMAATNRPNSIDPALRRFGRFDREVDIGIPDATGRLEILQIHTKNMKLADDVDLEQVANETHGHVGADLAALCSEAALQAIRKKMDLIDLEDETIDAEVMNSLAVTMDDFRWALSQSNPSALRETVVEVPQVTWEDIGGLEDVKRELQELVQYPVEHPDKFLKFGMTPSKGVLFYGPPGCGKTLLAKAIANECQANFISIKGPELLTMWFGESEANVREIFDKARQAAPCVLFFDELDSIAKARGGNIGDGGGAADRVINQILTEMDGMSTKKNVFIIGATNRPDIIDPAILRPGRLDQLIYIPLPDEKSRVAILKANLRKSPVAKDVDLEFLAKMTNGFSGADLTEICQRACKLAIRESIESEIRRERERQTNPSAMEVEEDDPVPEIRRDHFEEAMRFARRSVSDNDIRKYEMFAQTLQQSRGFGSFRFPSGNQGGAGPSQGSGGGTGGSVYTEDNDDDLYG

Structure (SMILES): C#Cc1ccc(OCc2nnc(CC3CC3)n2-c2cccnc2)cc1C [Compound 55]
- IC50 (P97; [1]): 5300 nM

Structure (SMILES): [2H]C1([2H])C([2H])([2H])C([2H])([2H])C([2H])(Sc2nnc(COc3ccc(C#CC(C)OC(=O)NCCN4CCN(C(C)C)CC4)c(C)c3)n2-c2cccnc2)C1([2H])[2H] (stereo not shown) [Compound 42]
- IC50 (P97): 130 nM

Structure (SMILES): Cc1cc(OCc2nnc(SC3CCCC3)n2-c2cccnc2)ccc1C#CCNC(=O)OC(C)(C)C [Compound 49]
- IC50 (P97): 260 nM

Structure (SMILES): Cc1cc(OCc2nnc(SC3CCCC3)n2-c2cccnc2)ccc1C#CCOC(=O)NCCOCCNC(=O)CC1C2CC3CC(C2)CC1C3 (stereo not shown) [Compound 111]
- IC50 (P97): 30 nM

Structure (SMILES): CN1CCC(NC(=O)OCC#Cc2ccc(OCc3nnc(SC4C=CCCC4)n3-c3cccnc3)cc2C#N)CC1 (stereo not shown) [Compound 121]
- IC50 (P97; [1]): 30 nM

Structure (SMILES): N#Cc1ccc(C#CCOCc2nnc(SC3CCCC3)n2-c2cccnc2)cc1 [Compound 56]
- IC50 (P97): > 6700 nM

Structure (SMILES): Cc1cc(OCc2nnc(SC3CCCC3)n2-c2cccnc2)ccc1-c1ccc(S(C)(=O)=O)cc1 [NMS-873]
- IC50 (SKMel5 (BRAFV600E)): 1.95 µM
- IC50 (MDA-MB-468): 1.36 µM
- IC50 (RPMI8226): 0.08 µM
- IC50 (MDA-MB-231): 2.95 µM
- IC50 (LoxIMVI (BRAFV600E)): 0.65 µM
- IC50 (HCT116): 1.2 µM
- IC50 (A549): 2.2 µM
- IC50 (SKMel2 (NRASQ61R)): 3.04 µM
- IC50 (BxPC-3): 2.5 µM
- IC50 (HCT15): 2.1 µM
- IC50 (MCF-7): 3.07 µM
- IC50 (PANC-1): 5 µM
- IC50 (WM3918 (BRAF/NRAS WT)): 2.35 µM
- IC50 (SW620): 2.6 µM
- IC50 (Molt4): 0.92 µM
- IC50 (A375 (BRAFV600E)): 2.27 µM
- IC50 (CCRF-CEM): 0.1 µM

Structure (SMILES): CCC(=O)NCC#Cc1ccc(OCc2nnc(SC[C@@]3(C)CO3)n2-c2cccnc2)cc1C [Compound 130]
- P97 Biomolgreen; 200 μM ATP; IC50 (μM) (P97): Not active

Structure (SMILES): COC(C)NCC#Cc1ccc(OCc2nnc(SC3CCCC3)n2-c2cccnc2)cc1C (stereo not shown) [Compound 12]
- IC50 (P97): 29 nM

Structure (SMILES): Cc1cc(OCc2nnc(SC3C=CCCC3)n2-c2cccnc2)ccc1C#CCOC(=O)NCCN1CCN(C(C)C)CC1 (stereo not shown) [Compound 71]
- IC50 (P97): 26 nM

Other lines, results leading:

- IC50 (P97): 67 nM
Structure (SMILES): [2H]C1([2H])C([2H])([2H])C([2H])([2H])C([2H])(Sc2nnc(COc3ccc(C#CCNC4CCN(C)CC4)c(C)c3)n2-c2cccnc2)C1([2H])[2H] [Compound 96]

- IC50 (P97; [1]): 110 nM
Structure (SMILES): Cc1cc(OCc2nnc(SC3C=CCCC3)n2-c2cccnc2)ccc1C#CCOC1CCCCO1 (stereo not shown) [Compound 57]

- IC50 (P97): 990 nM
Structure (SMILES): [2H]C1([2H])C([2H])([2H])C([2H])([2H])C([2H])(Sc2nnc(COc3ccc(C#CCO)c(C)c3)n2-c2cccnc2)C1([2H])[2H] [Compound 117]

- IC50 (P97): 60 nM
Structure (SMILES): Cc1cc(OCc2nnc(SC3CCCC3)n2-c2cccnc2)ccc1C#CCOC(=O)NCCNC(=O)CC1C2CC3CC(C2)CC1C3 (stereo not shown) [Compound 110]

- IC50 (P97): 15 nM
Structure (SMILES): Cc1cc(OCc2nnc(SC3C=CCCC3)n2-c2cccnc2)ccc1C#CCOC(=O)N1CCN(C)CC1 (stereo not shown) [Compound 108]

- IC50 (P97): 25 nM
Structure (SMILES): Cc1cc(OCc2nnc(SC3C=CCCC3)n2-c2cccnc2)ccc1C#CCOC(=O)NC1CCN(C)CC1 (stereo not shown) [Compound 75]

- IC50 (P97; [1]): 32 nM
Structure (SMILES): OCC#Cc1ccc(OCc2nnc(SC3C=CCCC3)n2-c2cccnc2)cc1 (stereo not shown) [Compound 91]

- P97 Biomolgreen; 200 μM ATP; IC50 (μM) (P97): Not active
Structure (SMILES): CCC(=O)NCC#Cc1ccc(OCc2nnc(SCC3CO3)n2-c2cccnc2)cc1C (stereo not shown) [Compound 129]

Reference: patent publication US20220175754A1, “P97 INHIBITORS FOR TREATING CANCER AND NEURODEGENERATIVE DISORDERS” (Lundquist Institute for Biomedical Innovation at …, priority 2018, published 2022)
